Tested on: R223X stop codon in the mutated luciferase gene, ADXC8 luciferase reporter cell line
Assay: cells
Type: cell-based
Settings: 24 h, ADXC8 cells, 24 hours; for Emax: read-out: Fold Over Control, maximum fold response relative to 200 μM G418; for EC (100% of 200 uM G418 response): read-out: pC100%, negative logarithm of the concentration giving the same response as 200 μM G418
Procedure: The read-through activity of compounds was assessed using the ADXC8 luciferase reporter cell line (generated as described in McElroy et al. PLoS Biology (2013), 11, e1001593). […] The amount of luciferase is measured by adding a lysis buffer containing luciferin substrate and detecting luminescence using the following protocol:
ADXC8 cells in assay media (DMEM+10% FBS) were seeded into 96-well tissue culture treated white plates (Greiner) to a density of 13,000 cells per well and incubated for 24 hours at 37° C. in an atmosphere of 5% CO2. […] Plates were incubated for a further 24 hours at 37° C. in an atmosphere of 5% CO2. Cells treated with 200 μM G418 (with 1% DMSO) were used as a positive control.
Cell viability and firefly luciferase activity were measured in the same assay wells. CellTiter-Fluor™ reagent was prepared as per manufacturer's instructions (Promega E7120) and 20 μl of 5× CellTiter-Fluor™ reagent was added to all wells, briefly mixed by orbital shaking (300-500 rpm for −30 seconds) and the plates incubated for 30-45 minutes at 37° C. in an atmosphere of 5% C02. Cell viability was measured by monitoring fluorescence on a CLARIOstar® plate reader (BMG Labtech). Cells containing 1% DMSO were used as a positive control and cells with 400 μM Doxorubicin were used as negative control to define 100 and 0% respectively. ONE-Glo™ luciferase assay buffer (Promega E7120) was prepared according to manufacturer's instructions and 100 μl of luciferase reagent was added to each well and the plate incubated at RT for 3 mins before measuring the luminescence on the CLARIOstar® plate reader (BMG Labtech). Cells treated with 200 μM G418 (with 1% DMSO) were used as a positive control and arbitrarily assigned a value of 100%. Cells treated with 1% DMSO were used as the negative control to define 0% response.
Concentration effect curves were analysed using non-linear regression using the CDD Vault from Collaborative Drug Discovery (Burlingame, CA). […] The bottom and top of the curves were constrained to 0 and the maximum measured response respectively. From the fitted curves, the software derived C100% values (the concentration giving the same response as 200 μM G418) for each compound. The negative logarithm of C100% is reported as pC100% (Table 1). In addition to pC100% values, the maximum fold response relative to 200 μM G418 (Fold over Control) was also captured (Table 1). A pC100% categorisation of ‘-’ in Table 1 represents examples in which a pC100% response was not reached when assayed at a concentration of 100 μM. A pC100% categorisation of ‘*’ in Table 1 represents examples in which a pC100% response was not reached when assayed at a concentration of 30 μM.

| SMILES | Emax | EC (100% of 200 uM G418 response) |
| --- | --- | --- |
| CN1CCC(Nc2nc(N)c3ccc(-c4cccc(N(C)C)c4)nc3n2)CC1 [Example 52] | 100 to 3000% | 1 to 10 µM |
| CNc1ccc(-c2ccc3c(N)nc(NC4CCN(C)CC4)nc3n2)cc1 [Example 53] | 100 to 3000% | 1 to 10 µM |
| CN1CCC(Nc2nc(N)c3ccc(-c4ccc(S(C)(=O)=O)cc4)nc3n2)CC1 [Example 54] | 0 to 100% | > 100 µM |
| CN1CCC(Nc2nc(N)c3ccc(-c4cccc(S(N)(=O)=O)c4)nc3n2)CC1 [Example 55] | 100 to 3000% | 10 to 100 µM |
| CNCc1ccc(-c2ccc3c(N)nc(NC4CCN(C)CC4)nc3n2)cc1 [Example 56] | 100 to 3000% | 10 to 100 µM |
| CN1CCC(Nc2nc(N)c3ccc(-c4ccc(F)cc4)nc3n2)CC1 [Example 57] | 100 to 3000% | 1 to 10 µM |
| COCc1ccccc1-c1ccc2c(N)nc(NC3CCN(C)CC3)nc2n1 [Example 58] | 100 to 3000% | 10 to 100 µM |
| CN(C)Cc1ccccc1-c1ccc2c(N)nc(NC3CCN(C)CC3)nc2n1 [Example 59] | 0 to 100% | > 100 µM |
| CC(=O)Nc1ccccc1-c1ccc2c(N)nc(NC3CCN(C)CC3)nc2n1 [Example 60] | 0 to 100% | > 100 µM |
| CN1CCC(Nc2nc(N)c3ccc(-c4ccnnc4)nc3n2)CC1 [Example 61] | 0 to 100% | > 100 µM |
| CN1CCC(Nc2nc(N)c3ccc(-c4cccc(F)c4)nc3n2)CC1 [Example 62] | 100 to 3000% | 1 to 10 µM |
| CN1CCC(Nc2nc(N)c3ccc(-c4ccc(CN)cc4)nc3n2)CC1 [Example 63] | 100 to 3000% | 1 to 10 µM |
| CC(=O)Nc1cccc(-c2ccc3c(N)nc(NC4CCN(C)CC4)nc3n2)c1 [Example 64] | 0 to 100% | > 100 µM |
| CN1CCC(Nc2nc(N)c3ccc(-c4ccc(C(F)(F)F)cc4)nc3n2)CC1 [Example 66] | 0 to 100% | > 100 µM |
| CN1CCC(Nc2nc(N)c3ccc(-c4cccc(C(F)(F)F)c4)nc3n2)CC1 [Example 67] | 100 to 3000% | 1 to 10 µM |
| CN1CCC(Nc2nc(N)c3ccc(-c4ccc(N)cc4)nc3n2)CC1 [Example 68] | 100 to 3000% | 10 to 100 µM |
| CN1CCC(Nc2nc(N)c3ccc(-c4cc(F)ccc4F)nc3n2)CC1 [Example 69] | 100 to 3000% | 1 to 10 µM |
| CN1CCC(Nc2nc(N)c3ccc(-c4cccc(C(N)=O)c4)nc3n2)CC1 [Example 70] | 100 to 3000% | 10 to 100 µM |
| CN1CCC(Nc2nc(N)c3ccc(-c4ccc(C(=O)N(C)C)cc4)nc3n2)CC1 [Example 71] | 0 to 100% | > 100 µM |
| CN1CCC(Nc2nc(N)c3ccc(-c4ccccc4N(C)C)nc3n2)CC1 [Example 72] | 0 to 100% | > 100 µM |

| SMILES | Emax | EC (100% of 200 uM G418 response) |
| --- | --- | --- |
| CC(=O)Nc1ccc(-c2ccc3c(N)nc(NC4CCN(C)CC4)nc3n2)cc1 [Example 73] | 0 to 100% | > 100 µM |
| CN1CCC(Nc2nc(N)c3ccc(-c4cccc(CN)c4)nc3n2)CC1 [Example 74] |  | 1 to 10 µM |
| CN1CCC(Nc2nc(N)c3ccc(-c4ccccc4C(=O)N(C)C)nc3n2)CC1 [Example 75] | 0 to 100% | > 100 µM |
| CN(C)Cc1cccc(-c2ccc3c(N)nc(NC4CCN(C)CC4)nc3n2)c1 [Example 76] | 100 to 3000% | 10 to 100 µM |
| CNC(=O)c1ccc(-c2ccc3c(N)nc(NC4CCN(C)CC4)nc3n2)cc1 [Example 77] | 0 to 100% | > 100 µM |
| COCc1ccc(-c2ccc3c(N)nc(NC4CCN(C)CC4)nc3n2)cc1 [Example 78] | 100 to 3000% | 1 to 10 µM |
| CN1CCC(Nc2nc(N)c3ccc(-c4ccn(C)n4)nc3n2)CC1 [Example 79] | 0 to 100% | > 100 µM |
| CNC(=O)c1cccc(-c2ccc3c(N)nc(NC4CCN(C)CC4)nc3n2)c1 [Example 80] | 100 to 3000% | 10 to 100 µM |
| COCc1cccc(-c2ccc3c(N)nc(NC4CCN(C)CC4)nc3n2)c1 [Example 81] |  | 1 to 10 µM |
| CSc1ccccc1-c1ccc2c(N)nc(NC3CCN(C)CC3)nc2n1 [Example 82] |  | 1 to 10 µM |
| CN1CCC(Nc2nc(N)c3ccc(-c4cccc(C(=O)O)c4)nc3n2)CC1 [Example 83] | 0 to 100% | > 100 µM |
| CN1CCC(Nc2nc(N)c3ccc(-c4ccc(C(=O)O)cc4)nc3n2)CC1 [Example 84] | 0 to 100% | > 100 µM |
| CN1CCC(Nc2nc(N)c3ccc(-c4ccc(F)cc4F)nc3n2)CC1 [Example 85] |  | 1 to 10 µM |
| CN1CCC(Nc2nc(N)c3ccc(-c4cccc(C(=O)N(C)C)c4)nc3n2)CC1 [Example 86] | 0 to 100% | > 100 µM |
| CN1CCC(Nc2nc(N)c3ccc(-c4ccccc4C(=O)O)nc3n2)CC1 [Example 87] | 0 to 100% | > 100 µM |
| CN1CCC(Nc2nc(N)c3ccc(-c4ccccc4F)nc3n2)CC1 [Example 88] |  | 1 to 10 µM |
| CN1CCC(Nc2nc(N)c3ccc(-c4ccccc4CO)nc3n2)CC1 [Example 89] |  | 10 to 100 µM |
| CN1CCC(Nc2nc(N)c3ccc(-c4ccccc4C(F)(F)F)nc3n2)CC1 [Example 90] | 100 to 3000% | 10 to 100 µM |
| CN1CCC(Nc2nc(N)c3ccc(-c4cccc(Cl)c4)nc3n2)CC1 [Example 91] |  | 1 to 10 µM |
| CN1CCC(Nc2nc(N)c3ccc(-c4cccc(CO)c4)nc3n2)CC1 [Example 92] | 100 to 3000% | 10 to 100 µM |

| SMILES | Emax | EC (100% of 200 uM G418 response) |
| --- | --- | --- |
| CN1CCC(Nc2nc(N)c3ccc(-c4cccc(N)c4)nc3n2)CC1 [Example 93] | 100 to 3000% | 10 to 100 µM |
| CN1CCC(Nc2nc(N)c3ccc(-c4ccc(CO)cc4)nc3n2)CC1 [Example 94] | 100 to 3000% | 10 to 100 µM |
| CN1CCC(Nc2nc(N)c3ccc(-c4ccc(C#N)cc4)nc3n2)CC1 [Example 95] |  | 10 to 100 µM |
| CN1CCC(Nc2nc(N)c3ccc(-c4ccc(Cl)cc4)nc3n2)CC1 [Example 96] |  | 10 to 100 µM |
| CN1CCC(Nc2nc(N)c3ccc(-c4cccc(S(C)(=O)=O)c4)nc3n2)CC1 [Example 97] |  | 10 to 100 µM |
| CN1CCC(Nc2nc(N)c3ccc(-c4cncnc4)nc3n2)CC1 [Example 98] | 0 to 100% | > 100 µM |
| CSc1cccc(-c2ccc3c(N)nc(NC4CCN(C)CC4)nc3n2)c1 [Example 99] |  | 0.1 to 1 µM |
| COc1cccc(-c2ccc3c(N)nc(NC4CCN(C)CC4)nc3n2)c1 [Example 100] | 100 to 3000% | 1 to 10 µM |
| Cc1ccc(-c2ccc3c(N)nc(NC4CCN(C)CC4)nc3n2)cc1 [Example 101] |  | 1 to 10 µM |
| CN1CCC(Nc2nc(N)c3ccc(-c4ccc(O)cc4)nc3n2)CC1 [Example 102] | 100 to 3000% | 10 to 100 µM |
| CSc1ccc(-c2ccc3c(N)nc(NC4CCN(C)CC4)nc3n2)cc1 [Example 103] |  | 1 to 10 µM |
| CN1CCC(Nc2nc(N)c3ccc(-c4cccc(O)c4)nc3n2)CC1 [Example 104] |  | 10 to 100 µM |
| CN(C)Cc1ccc(-c2ccc3c(N)nc(NC4CCN(C)CC4)nc3n2)cc1 [Example 105] | 100 to 3000% | 10 to 100 µM |
| CN1CCC(Nc2nc(N)c3ccc(-c4ccccc4O)nc3n2)CC1 [Example 106] | 0 to 100% | > 100 µM |
| CNC(=O)c1ccccc1-c1ccc2c(N)nc(NC3CCN(C)CC3)nc2n1 [Example 107] | 0 to 100% | > 100 µM |
| CN1CCC(Nc2nc(N)c3ccc(-c4ccc(F)c(F)c4)nc3n2)CC1 [Example 108] |  | 1 to 10 µM |
| CNCc1cccc(-c2ccc3c(N)nc(NC4CCN(C)CC4)nc3n2)c1 [Example 109] | 100 to 3000% | 10 to 100 µM |
| Cc1ccccc1-c1ccc2c(N)nc(NC3CCN(C)CC3)nc2n1 [Example 110] |  | 1 to 10 µM |

Reference: patent publication US20260234144A1 (TAY THERAPEUTICS LIMITED, priority 2023, published 2026)
